# Data as given in paper PMC11868595, “Safety, pharmacokinetics and efficacy of HA121-28 in patients with advanced solid tumors and RET fusion-positive non-small-cell lung cancer: a multicenter, open-label, single-arm phase 1/2 trial” (Signal Transduction and Targeted Therapy, 2025).
# Like-named read-outs stand apart in the source and are kept apart here. Marks after values point to notes of the source that are not given here.
# Legend:
# [1] = system: patients of phase 1 and phase 2 trials; experiment: Phase 1/2 pooled TRAEs with or without previous immunotherapy; assay type: in vivo, human
# Description: Treatment-emergent adverse events (TEAEs) were documented during the entire study period. The predefined adverse event of special interest (AESI) was ≥ grade 3 prolonged QT interval. Tumor imaging was performed using contrast-enhanced computed tomography or magnetic resonance imaging at screening, Day 28 of the first cycle, then approximately every eight weeks till the end of the study for phase 1; in phase 2, imaging was scheduled at screening, and every eight weeks during the first 40 weeks, followed by every 12 weeks for the rest of the study period. RECIST 1.1 was used by the independent review committee or investigators for assessment of tumor response. After the original assessment, a repeated assessment was required around four weeks later to confirm a complete or partial response.
# The full analysis set consisted of all patients who had administered at least one dose of HA121-28 and was used to calculate the baseline characteristics, OS, and PFS results. The safety set included all patients who had administered at least one dose of the HA121-28 and had at least one safety-related observation. This population was used for analysis of TEAEs. The efficacy evaluable set consisted of patients who had administered at least one dose of HA121-28 and completed at least one efficacy assessment following study treatment. This population was used to calculate the ORR, DOR, and DCR. In addition, the ORRs for subgroup analyses, including age ( < 60, ≥60), ECOG PS (0 or 1), gender (male or female), prior treatment with TKIs (yes or no), brain or liver metastasis (yes or no), were also calculated. The plasma drug concentration-time profile was characterized using PK concentration set that included patients who had administered at least one dose of HA121-28 and had at least one measurable plasma concentration of HA121-28. The PK parameter set was used to calculate PK parameters, which consisted of patients who had administered at least one dose of HA121-28 with at least one valid PK parameter. ORR and DCR were described using the Clopper-Pearson method with two-sided 95% confidence intervals (CIs). PFS and DOR were assessed using the Kaplan-Meier method, including an estimate of the median, along with corresponding 95% CIs. Statistical analyses of clinical outcomes were conducted by SAS (version 9.4 or later) and R software 4.1.0 for genomic DNA from pre-treatment tumor tissue (http://cran.r-project.org).
# ECA-109 cells = experiment: Tumor cell proliferation in vitro; assay type: cell-based, human
# HCT116 cells = experiment: Tumor cell proliferation in vitro; assay type: cell-based
# MDA-MB-231 cells = experiment: Tumor cell proliferation in vitro; assay type: cell-based
# [2] = system: human thyroid cancer TT tumors; experiment: TT tumors in nude mice; assay type: in vivo; conditions: for RTV ±SD / T/C / Terminal Tumor Volume: TT tumors
# Description: (§1) was higher than that of vandetanib .
# as §1
# Table S15. Efficacy of HA121-28 on human thyroid cancer TT tumors
# [3] = system: EGFR signaling in tumor tissue; experiment: PK/PD in plasma and tumor tissue of tumor-bearing mice; assay type: in vivo; conditions: after a single dose, 25 and 50 mg/kg
# Plasma protein binding = assay type: in vitro ADME; conditions: mice
# PDGFRα = PDGFRα (Homo sapiens, UniProt P16234); experiment: Tyrosine kinase inhibition; assay type: biochemical
# Sequence of PDGFRα (P16234 24-1089): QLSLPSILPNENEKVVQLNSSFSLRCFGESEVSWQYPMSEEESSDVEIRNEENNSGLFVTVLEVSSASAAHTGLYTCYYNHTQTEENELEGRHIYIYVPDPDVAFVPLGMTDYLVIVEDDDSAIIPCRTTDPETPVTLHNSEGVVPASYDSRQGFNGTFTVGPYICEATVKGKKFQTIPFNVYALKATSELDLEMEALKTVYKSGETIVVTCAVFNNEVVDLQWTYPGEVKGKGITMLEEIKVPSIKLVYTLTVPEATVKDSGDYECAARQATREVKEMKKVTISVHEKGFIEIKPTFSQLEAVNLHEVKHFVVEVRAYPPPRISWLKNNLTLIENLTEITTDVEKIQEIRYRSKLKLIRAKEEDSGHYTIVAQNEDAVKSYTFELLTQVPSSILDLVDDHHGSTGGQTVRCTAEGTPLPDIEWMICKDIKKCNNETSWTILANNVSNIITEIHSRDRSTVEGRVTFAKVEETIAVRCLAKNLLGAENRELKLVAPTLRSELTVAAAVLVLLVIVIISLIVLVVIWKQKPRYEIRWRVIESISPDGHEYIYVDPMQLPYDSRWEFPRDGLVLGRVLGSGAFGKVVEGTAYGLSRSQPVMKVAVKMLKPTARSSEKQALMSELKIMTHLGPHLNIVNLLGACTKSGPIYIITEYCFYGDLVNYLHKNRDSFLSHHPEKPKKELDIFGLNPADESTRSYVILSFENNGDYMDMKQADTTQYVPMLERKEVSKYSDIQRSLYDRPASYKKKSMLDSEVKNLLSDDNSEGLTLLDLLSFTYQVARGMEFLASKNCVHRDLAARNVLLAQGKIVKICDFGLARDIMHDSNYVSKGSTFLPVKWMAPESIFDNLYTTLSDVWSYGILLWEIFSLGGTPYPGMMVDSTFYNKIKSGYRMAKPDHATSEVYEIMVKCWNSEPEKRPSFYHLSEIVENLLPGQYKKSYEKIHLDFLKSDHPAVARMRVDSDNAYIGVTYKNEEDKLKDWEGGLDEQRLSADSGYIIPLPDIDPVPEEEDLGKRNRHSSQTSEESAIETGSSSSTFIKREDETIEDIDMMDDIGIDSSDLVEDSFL
# [4] = With prior immunotherapy treatment (N=43)
# [5] = Without prior immunotherapy treatment (N=165)
compound,measurement,setting,value
"COc1cc2c(Nc3ccc(Br)cc3F)ncnc2cc1OCCCCN(C)C.Cl.Cl [HA121-28, N-(4-bromo-2-fluorophenyl)-7-(4-(dimethylamino)butoxy)-6-methoxy quinazolin-4-amine dihydrochloride]",incidence of ≥ grade-3 TRAE,[1]; 43 patients with previous immunotherapy,58.1%
same,incidence of ≥ grade-3 TRAE,[1]; 165 patients without previous immunotherapy,41.2%
same,"TRAE, All: ALT increased",[1]; [4],22 (51.2) count (percentage)
same,"TRAE, All: AST increased",[1]; [4],19 (44.2) count (percentage)
same,"TRAE, All: Anemia",[1]; [4],5 (11.6) count (percentage)
same,"TRAE, All: Any",[1]; [4],42 (97.7) count (percentage)
same,"TRAE, All: Blood creatinine increased",[1]; [4],11 (25.6) count (percentage)
same,"TRAE, All: Decreased appetite",[1]; [4],7 (16.3) count (percentage)
same,"TRAE, All: Decreased lymphocyte counts",[1]; [4],5 (11.6) count (percentage)
same,"TRAE, All: Diarrhea",[1]; [4],32 (74.4) count (percentage)
same,"TRAE, All: Fatigue",[1]; [4],6 (14.0) count (percentage)
same,"TRAE, All: Hypertension",[1]; [4],5 (11.6) count (percentage)
same,"TRAE, All: Hypoalbuminemia",[1]; [4],5 (11.6) count (percentage)
same,"TRAE, All: Hypokalemia",[1]; [4],9 (20.9) count (percentage)
same,"TRAE, All: Nausea",[1]; [4],6 (14.0) count (percentage)
same,"TRAE, All: Neutrophil counts decreased",[1]; [4],7 (16.3) count (percentage)
same,"TRAE, All: Platelet counts decreased",[1]; [4],7 (16.3) count (percentage)
same,"TRAE, All: Prolonged QT interval",[1]; [4],23 (53.5) count (percentage)
same,"TRAE, All: Proteinuria",[1]; [4],17 (39.5) count (percentage)
same,"TRAE, All: Rash",[1]; [4],31 (72.1) count (percentage)
same,"TRAE, All: Vomiting",[1]; [4],7 (16.3) count (percentage)
same,"TRAE, All: Weight loss",[1]; [4],6 (14.0) count (percentage)
same,"TRAE, All: White blood cell counts decreased",[1]; [4],7 (16.3) count (percentage)
same,"TRAE, ≥ Grade 3: ALT increased",[1]; [4],1 (2.3) count (percentage)
same,"TRAE, ≥ Grade 3: AST increased",[1]; [4],1 (2.3) count (percentage)
same,"TRAE, ≥ Grade 3: Anemia",[1]; [4],0 count (percentage)
same,"TRAE, ≥ Grade 3: Any",[1]; [4],25 (58.1) count (percentage)
same,"TRAE, ≥ Grade 3: Blood creatinine increased",[1]; [4],0 count (percentage)
same,"TRAE, ≥ Grade 3: Decreased appetite",[1]; [4],0 count (percentage)
same,"TRAE, ≥ Grade 3: Decreased lymphocyte counts",[1]; [4],0 count (percentage)
same,"TRAE, ≥ Grade 3: Diarrhea",[1]; [4],4 (9.3) count (percentage)
same,"TRAE, ≥ Grade 3: Fatigue",[1]; [4],0 count (percentage)
same,"TRAE, ≥ Grade 3: Hypertension",[1]; [4],0 count (percentage)
same,"TRAE, ≥ Grade 3: Hypoalbuminemia",[1]; [4],0 count (percentage)
same,"TRAE, ≥ Grade 3: Hypokalemia",[1]; [4],3 (7.0) count (percentage)
same,"TRAE, ≥ Grade 3: Nausea",[1]; [4],0 count (percentage)
same,"TRAE, ≥ Grade 3: Neutrophil counts decreased",[1]; [4],3 (7.0) count (percentage)
same,"TRAE, ≥ Grade 3: Platelet counts decreased",[1]; [4],0 count (percentage)
same,"TRAE, ≥ Grade 3: Prolonged QT interval",[1]; [4],12 (27.9) count (percentage)
same,"TRAE, ≥ Grade 3: Proteinuria",[1]; [4],0 count (percentage)
same,"TRAE, ≥ Grade 3: Rash",[1]; [4],3 (7.0) count (percentage)
same,"TRAE, ≥ Grade 3: Vomiting",[1]; [4],0 count (percentage)
same,"TRAE, ≥ Grade 3: Weight loss",[1]; [4],0 count (percentage)
same,"TRAE, ≥ Grade 3: White blood cell counts decreased",[1]; [4],1 (2.3) count (percentage)
same,"TRAE, All: ALT increased",[1]; [5],52 (31.5) count (percentage)
same,"TRAE, All: AST increased",[1]; [5],52 (31.5) count (percentage)
same,"TRAE, All: Anemia",[1]; [5],14 (8.5) count (percentage)
same,"TRAE, All: Any",[1]; [5],161 (97.6) count (percentage)
same,"TRAE, All: Blood creatinine increased",[1]; [5],33 (20.0) count (percentage)
same,"TRAE, All: Decreased appetite",[1]; [5],25 (15.2) count (percentage)
same,"TRAE, All: Decreased lymphocyte counts",[1]; [5],5 (3.0) count (percentage)
same,"TRAE, All: Diarrhea",[1]; [5],125 (75.8) count (percentage)
same,"TRAE, All: Fatigue",[1]; [5],22 (13.3) count (percentage)
same,"TRAE, All: Hypertension",[1]; [5],22 (13.3) count (percentage)
same,"TRAE, All: Hypoalbuminemia",[1]; [5],20 (12.1) count (percentage)
same,"TRAE, All: Hypokalemia",[1]; [5],26 (15.8) count (percentage)
same,"TRAE, All: Nausea",[1]; [5],37 (22.4) count (percentage)
same,"TRAE, All: Neutrophil counts decreased",[1]; [5],13 (7.9) count (percentage)
same,"TRAE, All: Platelet counts decreased",[1]; [5],12 (7.3) count (percentage)
same,"TRAE, All: Prolonged QT interval",[1]; [5],76 (46.1) count (percentage)
same,"TRAE, All: Proteinuria",[1]; [5],48 (29.1) count (percentage)
same,"TRAE, All: Rash",[1]; [5],88 (53.3) count (percentage)
same,"TRAE, All: Vomiting",[1]; [5],30 (18.2) count (percentage)
same,"TRAE, All: Weight loss",[1]; [5],6 (3.6) count (percentage)
same,"TRAE, All: White blood cell counts decreased",[1]; [5],14 (8.5) count (percentage)
same,"TRAE, ≥ Grade 3: ALT increased",[1]; [5],3 (1.8) count (percentage)
same,"TRAE, ≥ Grade 3: AST increased",[1]; [5],3 (1.8) count (percentage)
same,"TRAE, ≥ Grade 3: Anemia",[1]; [5],1 (0.6) count (percentage)
same,"TRAE, ≥ Grade 3: Any",[1]; [5],68 (41.2) count (percentage)
same,"TRAE, ≥ Grade 3: Blood creatinine increased",[1]; [5],2 (1.2) count (percentage)
same,"TRAE, ≥ Grade 3: Decreased appetite",[1]; [5],4 (2.4) count (percentage)
same,"TRAE, ≥ Grade 3: Decreased lymphocyte counts",[1]; [5],0 count (percentage)
same,"TRAE, ≥ Grade 3: Diarrhea",[1]; [5],12 (7.3) count (percentage)
same,"TRAE, ≥ Grade 3: Fatigue",[1]; [5],0 count (percentage)
same,"TRAE, ≥ Grade 3: Hypertension",[1]; [5],14 (8.5) count (percentage)
same,"TRAE, ≥ Grade 3: Hypoalbuminemia",[1]; [5],1 (0.6) count (percentage)
same,"TRAE, ≥ Grade 3: Hypokalemia",[1]; [5],4 (2.4) count (percentage)
same,"TRAE, ≥ Grade 3: Nausea",[1]; [5],2 (1.2) count (percentage)
same,"TRAE, ≥ Grade 3: Neutrophil counts decreased",[1]; [5],1 (0.6) count (percentage)
same,"TRAE, ≥ Grade 3: Platelet counts decreased",[1]; [5],1 (0.6) count (percentage)
same,"TRAE, ≥ Grade 3: Prolonged QT interval",[1]; [5],26 (15.8) count (percentage)
same,"TRAE, ≥ Grade 3: Proteinuria",[1]; [5],0 count (percentage)
same,"TRAE, ≥ Grade 3: Rash",[1]; [5],7 (4.2) count (percentage)
same,"TRAE, ≥ Grade 3: Vomiting",[1]; [5],2 (1.2) count (percentage)
same,"TRAE, ≥ Grade 3: Weight loss",[1]; [5],0 count (percentage)
same,"TRAE, ≥ Grade 3: White blood cell counts decreased",[1]; [5],2 (1.2) count (percentage)
same,≥ grade-3 TRAE decreased neutrophil counts,[1]; with previous immunotherapy,7.0%
same,≥ grade-3 TRAE hypertension,[1]; with previous immunotherapy,0%
same,≥ grade-3 TRAE prolonged QT interval,[1]; with previous immunotherapy,27.9%
same,≥ grade-3 TRAE decreased neutrophil counts,[1]; without previous immunotherapy,0.6%
same,≥ grade-3 TRAE hypertension,[1]; without previous immunotherapy,8.5%
same,≥ grade-3 TRAE prolonged QT interval,[1]; without previous immunotherapy,15.8%
same,IC50,ECA-109 cells,6.663 ± 0.0545 µM
same,IC50,HCT116 cells,1.42 ± 0.236 µM
same,IC50,MDA-MB-231 cells; read-out: IC50,10 to 100 µM
same,IC50,"MDA-MB-231 cells; read-out: IC50, proliferation",10.3 ± 2.01 µM
same,in vivo anti-tumor effect,[2]; 50 mg/kg,tumor shrinkage was observed
same,RTV ±SD,[2]; 25 mg/kg,2.1±0.6
same,T/C,[2]; 25 mg/kg,33.8%
same,Terminal Tumor Volume,[2]; 25 mg/kg,307.4±69.5** mm^3
same,RTV ±SD,[2]; 50 mg/kg,0.8±0.2
same,T/C,[2]; 50 mg/kg,13.6%
same,Terminal Tumor Volume,[2]; 50 mg/kg,131.9±66.5** mm^3
same,RTV ±SD,[2]; 75 mg/kg,0.5±0.2
same,T/C,[2]; 75 mg/kg,8.7%
same,Terminal Tumor Volume,[2]; 75 mg/kg,86.9±40.0** mm^3
same,onset of inhibition of EGFR signaling pathway,[3],2 h
same,plasma protein binding rate,Plasma protein binding,97.2±0.266%
same,IC50,PDGFRα,0.0587 µM
